Results taken from patent US9855226B2 (Relmada Therapeutics, Inc., priority 2012, dated 2018).

Key:
[1] = target: T1, N-methyl-D-aspartate (NMDA) receptor (Rattus norvegicus, UniProt P35439); settings: cited from earlier work
T1 construct: N-methyl-D-aspartate (NMDA) receptor in rat forebrain and spinal cord

[2] = test system: patients with chronic pain; settings: average of eight patients
[3] = test system: patients with chronic pain
[4] = test system: relatively refractory population with major depression; settings: single dose; cited from earlier work
[5] = test system: subjects with major depression; settings: single dose, 8 subjects; cited from earlier work
male Wistar rats = settings: single dose; cited from earlier work
[6] = day 12 of d-methadone 40 mg every 12 hours
[7] = 8 patients that completed and 1 removed, 40 mg PO q12 hr

CCC(=O)C(C[C@H](C)N(C)C)(c1ccccc1)c1ccccc1 [d-methadone]
NMDA receptor antagonism [1]: NMDA antagonists
Anxiety, Baseline, average score ([2]; baseline (day 1)): 2.5
Drowsiness, Baseline, average score ([2]; baseline (day 1)): 4.1
Pain, Baseline, average score ([2]; baseline (day 1)): 4.1
Tiredness, Baseline, average score ([2]; baseline (day 1)): 5.9
Anxiety, Day 12, average score [2, 6]: 1.5
Drowsiness, Day 12, average score [2, 6]: 2.9
Pain, Day 12, average score [2, 6]: 4.1
Tiredness, Day 12, average score [2, 6]: 3.6
Tolerability ([3]; 40 mg PO Q 12 hours for 12 days, patients with chronic pain and multiple co morbidities): well tolerated
Back pain: # of patients [3, 7]: 1
Headache (first line): # of patients [3, 7]: 1
Headache (second line): # of patients [3, 7]: 1
Somnolence (Neurology): # of patients [3, 7]: 2
Tremor (Neurology): # of patients [3, 7]: 1
Back pain: Attribution ([3]; CTCAE v3.0): 3
Back pain: Grade (1-5) ([3]; CTCAE v3.0): 1
Headache (first line): Attribution ([3]; CTCAE v3.0): 3
Headache (first line): Grade (1-5) ([3]; CTCAE v3.0): 1
Headache (second line): Attribution ([3]; CTCAE v3.0): 4
Headache (second line): Grade (1-5) ([3]; CTCAE v3.0): 1
Somnolence (Neurology): Attribution ([3]; CTCAE v3.0): 3
Somnolence (Neurology): Grade (1-5) ([3]; CTCAE v3.0): 2
Tremor (Neurology): Attribution ([3]; CTCAE v3.0): 3
Tremor (Neurology): Grade (1-5) ([3]; CTCAE v3.0): 1
Patients' perception of analgesia ([3]; very sick patients with severe cancer pain): recognized it as an effective analgesic

CNC1(c2ccccc2Cl)CCCCC1=O (stereo not shown) [ketamine]
Duration of antidepressant response (relatively sustained) [4]: 1 week
Time to antidepressant response (rapid) [4]: 110 min
Antidepressant effect [5]: rapid and short-lived antidepressant effect
Duration of interference with the induction of behavioral despair (male Wistar rats): up to 10 days

CCC(=O)C(C[C@@H](C)N(C)C)(c1ccccc1)c1ccccc1 [l-methadone, reference compound]
NMDA receptor antagonism [1]: NMDA antagonists
